According to patent publication US3943154A, “Acylamides of beta-cyano-ethenesulfonyl substituted aminoarenes” (Sanitized Incorporated, priority 1973, dated 1976):
Values after ≈ are worked out from the molar mass of the structure shown.

Legend:
[1] = system: Salmonella typhosa ATCC 6539; test: button assay, antibacterial activity; assay type: cell-based; details: for MIC: Salmonella enterica, 24 h, read-out: Antibacterial Activity S.typhosa, minimum inhibitory concentration; for Antibacterial Activity S.typhosa, minimum inhibitory concentration: button assay, lowest concentration showing a clear zone of inhibition, 24 hours at 37° C
Experimental: (§1) In the test program, the minimum inhibitory concentrations of the respective test compounds against various Gram positive and Gram negative bacteria were determined, employing the "button assay" method. The test organisms utilized were standard cultures of Staphylococcus aureus ATCC 6538 DR, a penicillin resistant Gram positive bacterium; Bacillus subtilis ATCC 9525, a spore-forming Gram positive bacillus; and Salmonella typhosa ATCC 6539, a Gram negative bacterium.
(§2) The highest concentration was ordinarily 1000 ppm (parts per million) [0.1%], and dilutions were made in suitable steps down to 1 ppm. Penicillin test buttons of filter paper having a diameter of 13 mm (socalled "Peniassay" buttons) were added to each solution within a test tube and left submerged for five minutes. They were then removed and left to dry on paper towels under sterile conditions. A laminar flow sterile cabinet equipped with ultraviolet lamps operating under positive air pressure was utilized for this purpose.
(§3) An 18-24 hour old nutrient broth culture (standard 1.5% nutrient agar) prepared in conventional manner from a slant and having passed through at least three consecutive daily transfers was used for inoculation. Melted and cooled sterile agar (45° C) was inoculated with the respective broth cultures by addition of 20 ml broth per liter of agar. The agar was then dispensed into Petri dishes (20 ml per plate) under sterile conditions and allowed to harden.
(§4) The test buttons were placed on the surface of the hardened agar and the plates incubated for 24 hours at 37° C. Where, on inspection, a clear zone of inhibition appeared around the button, inhibition of growth was presumed. Where growth touched the button there was no inhibition. For each of the test compounds, the lowest concentration showing a clear zone is reported as the inhibitory concentration in the following table. […]

[2] = system: Bacillus subtilis ATCC 9525; test: button assay, antibacterial activity; assay type: cell-based; details: 24 hours at 37° C; for MIC: Bacillus subtilis, ATCC9525, lowest concentration showing a clear zone of inhibition, read-out: Antibacterial Activity B.subtilis, minimum inhibitory concentration; for Antibacterial Activity B.subtilis, minimum inhibitory concentration: lowest concentration showing a clear zone of inhibition
Experimental: as §1
as §2, with “In the tests the respective compounds were dissolved in a suitable solvent, usually acetone or dimethylsulfoxide, to give solutions with known concentrations of active material. The highest” for “The highest”
as §3
The test buttons were placed on the surface of the hardened agar and the plates incubated for 24 hours at 37° C. Where, on inspection, a clear zone of inhibition appeared around the button, inhibition of growth was presumed. Where growth touched the button there was no inhibition. For each of the test compounds, the lowest concentration showing a clear zone is reported as the inhibitory concentration in the following table.
(§5) The button assay and agar incorporation tests were also utilized to determine the corresponding inhibitory concentrations of various control materials, viz., the following well known commercial antimicrobials and fungicides: hexachlorophene, tribromosalicylanilide, trichlorocarbanilide,Captan (N-(trichloromethylthio)4cyclohexene-1,2-dicarboximide) and Zineb (zinc ethylenebis[dithiocarbamate]). The minimum inhibitory concentration of each of the various control materials against the respective organisms is indicated in Table IV below: […]

[3] = system: Staphylococcus aureus ATCC 6538 DR; test: button assay, antibacterial activity; assay type: cell-based; details: for MIC: Staphylococcus aureus, ATCC6538, 24 h, read-out: Antibacterial Activity S.aureus, minimum inhibitory concentration; for Antibacterial Activity S.aureus, minimum inhibitory concentration: button assay, lowest concentration showing a clear zone of inhibition, 24 hours at 37° C
Experimental: as §1
as §2, with “In the tests the respective compounds were dissolved in a suitable solvent, usually acetone or dimethylsulfoxide, to give solutions with known concentrations of active material. The highest” for “The highest”
as §3, §4

[4] = solubility of the product in solvents; assay type: physicochemical
Experimental: Naphthalene-2,6-disulfonyl chloride (6.2 g, 0.02 mol) is dissolved in 100 ml dimethylformamide; to the solution is added, in 2-3 portions over about a minute, a solution of 3-(4-aminobenzenesulfonyl)acrylonitrile in 50 ml dimethylformamide containing 6 ml triethylamine (8.4 g, 0.04 mol). The temperature rises to 35° C by the exothermic reaction. The reaction mixture is maintained at room temperature for 2 hours and filtered to separate triethylamine hydrochloride therefrom. Addition of chloroform to the filtrate precipitates the product which, after washing with ethanol/water and drying, is in the form of a slightly off-white powder having a melting point of 312° C. […] It is naphthalene-2,6-bis-sulfon-[4-(2-cyanoethenesulfonyl)anilide]: ##SPC42##

[5] = system: Aspergillus niger ATCC 6257; test: agar incorporation test, antifungal activity; assay type: cell-based; details: lowest concentration showing no growth or sporulation, four days at 28° C; for MIC: Aspergillus niger, ATCC6257, 96 h, read-out: Antifungal Activity A. niger, minimum inhibitory concentration
Experimental: The anti-fungal activity of the test compounds was determined employing the "agar incorporation" technique, utilizing spores from Aspergillus niger ATCC 6257 as a representative organism. Test solutions were prepared as described above in acetone or dimethylsulfoxide. A source of carbon agar such as Mycophil Agar was used. The agar was melted and cooled and placed in a constant temperature water bath at 45° C + 3° C. About 13-14 ml of the agar was then poured into a sterile Petri dish, the required amount of test solution to give the desired concentration immediately added thereto, and the dish rotated and swirled by hand to obtain a uniform mixture before the agar hardened.
The hardened plates were inoculated with the test organism by fishing spores from a 7-14 day old slant with the inocculating needle and spotting the spores on the plates, usually in several places. The inoculated plates were incubated for four days in an incubator maintained at 28° C +2° C and with a relative humidity of 95%+.
The lowest concentration of each test compound showing no growth or sporulation of the test organism was taken as the minimum inhibitory concentration and is reported in the following tabulation.
as §5

[6] = stability of the recovered product; assay type: physicochemical; details: recovered by filtration and drying at low temperature under vacuum
Experimental: 10.4 g (0.05 mol) of 2-cyanovinyl 4-aminophenyl sulfone is dissolved in 100 ml of acetone and the solution cooled to 0° C. […] of phosphorus trichloride dissolved in 20 ml of acetone is added dropwise with stirring. After about 40 minutes the reaction mixture is poured into ice water with vigorous stirring. The intermediate initially formed hydrolyzes easily upon the addition of water to form di-4-(2-cyanoethenesulfonyl)anilidophosphine oxide, which can be recovered by filtration and drying at low temperature under vacuum.

Work on `N#CC=CS(=O)(=O)c1ccc(NS(=O)(=O)c2ccc3cc(S(=O)(=O)Nc4ccc(S(=O)(=O)C=CC#N)cc4)ccc3c2)cc1` [Example 37, naphthalene-2,6-bis-sulfon-[4-(2-cyanoethenesulfonyl)anilide]] yielded an MIC [1] of 20 µg/mL (≈ 29.9 µM), an MIC [2] of 50 µg/mL (≈ 74.8 µM) and an MIC [3] of 20 µg/mL (≈ 29.9 µM). The “solubility in dimethylformamide and dimethylsulfoxide” value ([4]; dimethylformamide, dimethylsulfoxide) was “soluble”, the “solubility in ethanol, chloroform and acetone” value ([4]; ethanol, chloroform, acetone) was “almost insoluble” and the MIC [5] was 1000 µg/mL (≈ 1500 µM).
With `N#CC=CS(=O)(=O)c1ccc(N[PH](=O)Nc2ccc(S(=O)(=O)C=CC#N)cc2)cc1` [Example 57, di-4-(2-cyanoethenesulfonyl)anilidophosphine oxide] the MIC [1] was 20 µg/mL (≈ 43.2 µM), the “stability of the product” value [6] was “somewhat unstable” and the MIC [2] was 20 µg/mL (≈ 43.2 µM). It also gave an MIC [3] of 20 µg/mL (≈ 43.2 µM) and an MIC [5] of 100 µg/mL (≈ 216 µM).
For `O=C(Nc1ccc(Br)cc1)c1cc(Br)cc(Br)c1O` [tribromosalicylanilide, reference compound], the “Antibacterial Activity S.typhosa, minimum inhibitory concentration” value [1] was 50 ppm, the “Antibacterial Activity B.subtilis, minimum inhibitory concentration” value [2] was 100 ppm and the “Antibacterial Activity S.aureus, minimum inhibitory concentration” value [3] was 100 ppm. The “Antifungal Activity A. niger, minimum inhibitory concentration” value [5] was > 1,000 ppm.
In the case of `O=C(Nc1ccc(Cl)cc1)Nc1ccc(Cl)c(Cl)c1` [trichlorocarbanilide, reference compound], the “Antibacterial Activity S.typhosa, minimum inhibitory concentration” value [1] is reported as 10,000 ppm, the “Antibacterial Activity B.subtilis, minimum inhibitory concentration” value [2] is reported as > 10,000 ppm and the “Antibacterial Activity S.aureus, minimum inhibitory concentration” value [3] is reported as 10 ppm. For the same compound, the “Antifungal Activity A. niger, minimum inhibitory concentration” value [5] was 1,000 ppm.
